Assay results as given in patent publication US4442044A, “Process for preparing monoesters and diesters of N-alkyl substituted amino methyl phosphonic acid” (priority 1983, dated 1984).

Columns and labels:
Assay in all cases: post-emergent herbicidal activity, greenhouse
Assay type in all cases: in vivo
Hemp Sesbania = conditions: Table II, 4 WAT
Text: (§1) A good grade of top soil is placed in aluminum pans having holes in the bottom and compacted to a depth of 0.95 to 1.27 cm. from the top of the pan. A predetermined number of seeds of each of several dicotyledonous and monocotyledonous annual plant species and/or vegetative propagules for the perennial plant species were placed on the soil and pressed into the soil surface. The seeds and/or vegetative propagules are covered with soil and leveled. The pans are then placed on a sand bench in the greenhouse and watered from below as needed. After the plants reach the desired age (two to three weeks), each pan except for the control pans is removed individually to a spraying chamber and sprayed by means of an atomizer operating at a positive air pressure of approximately 1.46 kg/cm^2 absolute. The atomizer contains 6 ml. of a solution or suspension of the chemical. In that 6 ml., is an amount of a cyclohexanone emulsifying agent mixture to give a spray solution or suspension which contains about 0.4% by weight of the emulsifier. The spray solution or suspension contains a sufficient amount of the candidate chemical in order to give application rates corresponding to those set forth in the tables. The spray solution is prepared by taking an aliquot of a 1.0% by weight stock solution or suspension of the candidate chemical in an organic solvent such as acetone or tetrahydrofuran or in water. The emulsifying agent employed is a mixture comprising 35 weight percent butylamine dodecylbenzene sulfonate and 65 weight percent of a tall oil ethylene oxide condensate having about 11 moles of ethylene oxide per mole of tall oil. The pans are returned to the greenhouse and watered as before and the injury to the plants as compared to the control is observed at approximately two and four weeks as indicated in the tables under WAT and the results recorded. In some instances, the two-week observations are omitted.
(§2) The post-emergent herbicidal activity index used in Tables I and II is as follows: […]

Sorghum = conditions: Table II, 4 WAT
Text: as §1, §2

Barnyardgrass = tested on: Barnyardgrass
Text: as §1, §2

Morningglory = tested on: Morningglory
Text: as §1, §2

Quackgrass = conditions: Table I
Text: as §1, §2

Wild Buckwheat = conditions: Table II, 4 WAT
Text: as §1, §2

Smartweed = tested on: Smartweed
Text: as §1, §2

Velvetleaf = tested on: Velvetleaf
Text: as §1, §2

Downy Brome = tested on: Downy Brome
Text: as §1, §2

Lambsquarters = tested on: Lambsquarters
Text: as §1, §2

Wheat = conditions: Table II, 4 WAT
Text: as §1, §2

Johnsongrass = conditions: Table I
Text: as §1, §2

Yellow Nutsedge = conditions: Table I
Text: as §1, §2

Soybean = conditions: Table II, 4 WAT
Text: as §1, §2

Canada Thistle = conditions: Table I
Text: as §1, §2

Cocklebur = tested on: Cocklebur
Text: as §1, §2

Sugar Beet = conditions: Table II, 4 WAT
Text: as §1, §2

Crabgrass = conditions: Table II, 4 WAT
Text: as §1, §2

Rice = conditions: Table II, 4 WAT
Text: as §1, §2

Panicum Spp = conditions: Table II, 4 WAT
Text: as §1, §2

CCOC(=O)CNCP(=O)(OC(C)C#N)OC(C)C#N (stereo not shown) [Example 1, glycine, N-[[bis(1-cyanoethoxy)phosphinyl]methyl], ethyl ester]
post-emergent herbicidal activity index (Hemp Sesbania; 0.28 kg/h): 0 (0-24% control)
post-emergent herbicidal activity index (Hemp Sesbania; 1.12 kg/h): 5
post-emergent herbicidal activity index (Hemp Sesbania; 5.6 kg/h): 2 (50-74% control)
post-emergent herbicidal activity index (Sorghum; 0.28 kg/h): 1 (25-49% control)
post-emergent herbicidal activity index (Sorghum; 1.12 kg/h): 3 (75-99% control)
post-emergent herbicidal activity index (Sorghum; 5.6 kg/h): 4 (100% control)
post-emergent herbicidal activity index (Barnyardgrass; Table I, 4 WAT, 5.6 kg/h): 4 (100% control)
post-emergent herbicidal activity index (Barnyardgrass; Table I, 4 WAT, 11.2 kg/h): 4 (100% control)
post-emergent herbicidal activity index (Barnyardgrass; Table II, 4 WAT, 0.28 kg/h): 2 (50-74% control)
post-emergent herbicidal activity index (Barnyardgrass; Table II, 4 WAT, 1.12 kg/h): 3 (75-99% control)
post-emergent herbicidal activity index (Barnyardgrass; Table II, 4 WAT, 5.6 kg/h): 4 (100% control)
post-emergent herbicidal activity index (Morningglory; Table I, 4 WAT, 5.6 kg/h): 3 (75-99% control)
post-emergent herbicidal activity index (Morningglory; Table I, 4 WAT, 11.2 kg/h): 3 (75-99% control)
post-emergent herbicidal activity index (Morningglory; Table II, 4 WAT, 0.28 kg/h): 1 (25-49% control)
post-emergent herbicidal activity index (Morningglory; Table II, 4 WAT, 1.12 kg/h): 2 (50-74% control)
post-emergent herbicidal activity index (Morningglory; Table II, 4 WAT, 5.6 kg/h): 3 (75-99% control)
post-emergent herbicidal activity index (Quackgrass; 4 WAT, 5.6 kg/h): 3 (75-99% control)
post-emergent herbicidal activity index (Quackgrass; 4 WAT, 11.2 kg/h): 2 (50-74% control)
post-emergent herbicidal activity index (Wild Buckwheat; 0.28 kg/h): 0 (0-24% control)
post-emergent herbicidal activity index (Wild Buckwheat; 1.12 kg/h): 2 (50-74% control)
post-emergent herbicidal activity index (Wild Buckwheat; 5.6 kg/h): 4 (100% control)
post-emergent herbicidal activity index (Smartweed; Table I, 4 WAT, 5.6 kg/h): 3 (75-99% control)
post-emergent herbicidal activity index (Smartweed; Table I, 4 WAT, 11.2 kg/h): 4 (100% control)
post-emergent herbicidal activity index (Smartweed; Table II, 4 WAT, 0.28 kg/h): 0 (0-24% control)
post-emergent herbicidal activity index (Smartweed; Table II, 4 WAT, 1.12 kg/h): 3 (75-99% control)
post-emergent herbicidal activity index (Smartweed; Table II, 4 WAT, 5.6 kg/h): 4 (100% control)
post-emergent herbicidal activity index (Velvetleaf; Table I, 4 WAT, 5.6 kg/h): 4 (100% control)
post-emergent herbicidal activity index (Velvetleaf; Table I, 4 WAT, 11.2 kg/h): 3 (75-99% control)
post-emergent herbicidal activity index (Velvetleaf; Table II, 4 WAT, 0.28 kg/h): 0 (0-24% control)
post-emergent herbicidal activity index (Velvetleaf; Table II, 4 WAT, 1.12 kg/h): 2 (50-74% control)
post-emergent herbicidal activity index (Velvetleaf; Table II, 4 WAT, 5.6 kg/h): 4 (100% control)
post-emergent herbicidal activity index (Downy Brome; Table I, 4 WAT, 5.6 kg/h): 3 (75-99% control)
post-emergent herbicidal activity index (Downy Brome; Table I, 4 WAT, 11.2 kg/h): 2 (50-74% control)
post-emergent herbicidal activity index (Downy Brome; Table II, 4 WAT, 0.28 kg/h): 0 (0-24% control)
post-emergent herbicidal activity index (Downy Brome; Table II, 4 WAT, 1.12 kg/h): 2 (50-74% control)
post-emergent herbicidal activity index (Downy Brome; Table II, 4 WAT, 5.6 kg/h): 4 (100% control)
post-emergent herbicidal activity index (Lambsquarters; Table I, 4 WAT, 5.6 kg/h): 3 (75-99% control)
post-emergent herbicidal activity index (Lambsquarters; Table I, 4 WAT, 11.2 kg/h): 1 (25-49% control)
post-emergent herbicidal activity index (Lambsquarters; Table II, 4 WAT, 0.28 kg/h): 0 (0-24% control)
post-emergent herbicidal activity index (Lambsquarters; Table II, 4 WAT, 1.12 kg/h): 3 (75-99% control)
post-emergent herbicidal activity index (Lambsquarters; Table II, 4 WAT, 5.6 kg/h): 3 (75-99% control)
post-emergent herbicidal activity index (Wheat; 0.28 kg/h): 1 (25-49% control)
post-emergent herbicidal activity index (Wheat; 1.12 kg/h): 2 (50-74% control)
post-emergent herbicidal activity index (Wheat; 5.6 kg/h): 4 (100% control)
post-emergent herbicidal activity index (Johnsongrass; 4 WAT, 5.6 kg/h): 3 (75-99% control)
post-emergent herbicidal activity index (Johnsongrass; 4 WAT, 11.2 kg/h): 4 (100% control)
post-emergent herbicidal activity index (Yellow Nutsedge; 4 WAT, 5.6 kg/h): 2 (50-74% control)
post-emergent herbicidal activity index (Yellow Nutsedge; 4 WAT, 11.2 kg/h): 3 (75-99% control)
post-emergent herbicidal activity index (Soybean; 0.28 kg/h): 0 (0-24% control)
post-emergent herbicidal activity index (Soybean; 1.12 kg/h): 2 (50-74% control)
post-emergent herbicidal activity index (Soybean; 5.6 kg/h): 4 (100% control)
post-emergent herbicidal activity index (Canada Thistle; 4 WAT, 5.6 kg/h): 4 (100% control)
post-emergent herbicidal activity index (Canada Thistle; 4 WAT, 11.2 kg/h): 3 (75-99% control)
post-emergent herbicidal activity index (Cocklebur; Table I, 4 WAT, 5.6 kg/h): 3 (75-99% control)
post-emergent herbicidal activity index (Cocklebur; Table I, 4 WAT, 11.2 kg/h): 3 (75-99% control)
post-emergent herbicidal activity index (Cocklebur; Table II, 4 WAT, 0.28 kg/h): 1 (25-49% control)
post-emergent herbicidal activity index (Cocklebur; Table II, 4 WAT, 1.12 kg/h): 2 (50-74% control)
post-emergent herbicidal activity index (Cocklebur; Table II, 4 WAT, 5.6 kg/h): 3 (75-99% control)
post-emergent herbicidal activity index (Sugar Beet; 0.28 kg/h): 2 (50-74% control)
post-emergent herbicidal activity index (Sugar Beet; 1.12 kg/h): 4 (100% control)
post-emergent herbicidal activity index (Sugar Beet; 5.6 kg/h): 4 (100% control)
post-emergent herbicidal activity index (Crabgrass; 0.28 kg/h): 1 (25-49% control)
post-emergent herbicidal activity index (Crabgrass; 1.12 kg/h): 3 (75-99% control)
post-emergent herbicidal activity index (Crabgrass; 5.6 kg/h): 4 (100% control)
post-emergent herbicidal activity index (Rice; 0.28 kg/h): 0 (0-24% control)
post-emergent herbicidal activity index (Rice; 1.12 kg/h): 1 (25-49% control)
post-emergent herbicidal activity index (Rice; 5.6 kg/h): 4 (100% control)
post-emergent herbicidal activity index (Panicum Spp; 0.28 kg/h): 2 (50-74% control)
post-emergent herbicidal activity index (Panicum Spp; 1.12 kg/h): 4 (100% control)
post-emergent herbicidal activity index (Panicum Spp; 5.6 kg/h): 4 (100% control)

CCOC(=O)CNCP(=O)(OCC1CCCCO1)OCC1CCCCO1 (stereo not shown) [Example 23, glycine, N-[[bis(tetrahydro-2H-pyran-2-ylmethoxy)phosphinyl]methyl]-, ethyl ester]
post-emergent herbicidal activity index (Barnyardgrass; Table I, 2 WAT, 5.6 kg/h): 0 (0-24% control)
post-emergent herbicidal activity index (Barnyardgrass; Table I, 4 WAT, 11.2 kg/h): 1 (25-49% control)
post-emergent herbicidal activity index (Morningglory; Table I, 2 WAT, 5.6 kg/h): 0 (0-24% control)
post-emergent herbicidal activity index (Morningglory; Table I, 4 WAT, 11.2 kg/h): 1 (25-49% control)
post-emergent herbicidal activity index (Quackgrass; 2 WAT, 5.6 kg/h): 0 (0-24% control)
post-emergent herbicidal activity index (Quackgrass; 4 WAT, 11.2 kg/h): 0 (0-24% control)
post-emergent herbicidal activity index (Smartweed; Table I, 2 WAT, 5.6 kg/h): 0 (0-24% control)
post-emergent herbicidal activity index (Smartweed; Table I, 4 WAT, 11.2 kg/h): 1 (25-49% control)
post-emergent herbicidal activity index (Velvetleaf; Table I, 2 WAT, 5.6 kg/h): 0 (0-24% control)
post-emergent herbicidal activity index (Velvetleaf; Table I, 4 WAT, 11.2 kg/h): 0 (0-24% control)
post-emergent herbicidal activity index (Downy Brome; Table I, 2 WAT, 5.6 kg/h): 0 (0-24% control)
post-emergent herbicidal activity index (Downy Brome; Table I, 4 WAT, 11.2 kg/h): 0 (0-24% control)
post-emergent herbicidal activity index (Lambsquarters; Table I, 2 WAT, 5.6 kg/h): 0 (0-24% control)
post-emergent herbicidal activity index (Lambsquarters; Table I, 4 WAT, 11.2 kg/h): 0 (0-24% control)
post-emergent herbicidal activity index (Johnsongrass; 2 WAT, 5.6 kg/h): 0 (0-24% control)
post-emergent herbicidal activity index (Yellow Nutsedge; 2 WAT, 5.6 kg/h): 0 (0-24% control)
post-emergent herbicidal activity index (Yellow Nutsedge; 4 WAT, 11.2 kg/h): 0 (0-24% control)
post-emergent herbicidal activity index (Canada Thistle; 2 WAT, 5.6 kg/h): 0 (0-24% control)
post-emergent herbicidal activity index (Canada Thistle; 4 WAT, 11.2 kg/h): 0 (0-24% control)
post-emergent herbicidal activity index (Cocklebur; Table I, 2 WAT, 5.6 kg/h): 0 (0-24% control)
post-emergent herbicidal activity index (Cocklebur; Table I, 4 WAT, 11.2 kg/h): 0 (0-24% control)
